In ChEMBL document CHEMBL4813981, “Synthesis and in vitro antibacterial activity of new aminothiazole-oximepiperidone cephalosporins” (2021):
Values after ≈ are worked out from the molar mass of the structure shown.

Assays:
[1] = test system: Escherichia coli; assay: Bactericidal activity against ESBLs negative carbapenem-sensitive Escherichia coli 17-20 assessed as reduction in bacterial growth in the presence of avibactam; format: functional
[2] = test system: Acinetobacter baumannii; assay: Antibacterial activity against Acinetobacter baumannii NCTC 13304 assessed as reduction in bacterial growth in the presence of Avibactam; format: functional
[3] = test system: Klebsiella aerogenes; assay: Antibacterial activity against Enterobacter aerogenes 15-3 assessed as reduction in bacterial growth
[4] = test system: Klebsiella pneumoniae; assay: Antibacterial activity against Klebsiella pneumoniae ATCC 700603 assessed as reduction in bacterial growth; format: functional
[5] = test system: Pseudomonas aeruginosa; assay: Antibacterial activity against Carbapenem- resistant Pseudomonas aeruginosa 17-1 assessed as reduction in bacterial growth in the presence of Avibactam; format: functional
[6] = test system: Klebsiella pneumoniae; assay: Antibacterial activity against Carbapenem- resistant Klebsiella pneumoniae KR 15-13 assessed as reduction in bacterial growth in the presence of Avibactam; format: functional
[7] = test system: Pseudomonas aeruginosa; assay: Bactericidal activity against carbapenem-sensitive Pseudomonas aeruginosa 17-10 assessed as reduction in bacterial growth in the presence of avibactam; format: functional
[8] = test system: Acinetobacter baumannii; assay: Bactericidal activity against Carbapenem- resistant Acinetobacter baumannii 17-3 assessed as reduction in bacterial growth in the presence of avibactam; format: functional
[9] = test system: Enterococcus faecalis; assay: Antibacterial activity against Enterococcus faecalis ATCC 51299 assessed as reduction in bacterial growth; format: functional
[10] = test system: Klebsiella pneumoniae; assay: Antibacterial activity against ESBLs positive Carbapenem-sensitive Klebsiella pneumoniae 17-6 assessed as reduction in bacterial growth
[11] = test system: Klebsiella aerogenes; assay: Bactericidal activity against Enterobacter aerogenes 17-3 assessed as reduction in bacterial growth in the presence of avibactam; format: functional
[12] = test system: Escherichia coli; assay: Bactericidal activity against Escherichia coli NCTC 13353 assessed as reduction in bacterial growth; format: functional
[13] = test system: Enterobacter cloacae; assay: Antibacterial activity against Enterobacter cloacae 17-7 assessed as reduction in bacterial growth in the presence of Avibactam; format: functional
[14] = test system: Pseudomonas aeruginosa; assay: Bactericidal activity against carbapenem-sensitive Pseudomonas aeruginosa 17-9 assessed as reduction in bacterial growth in the presence of avibactam; format: functional
[15] = test system: Klebsiella aerogenes; assay: Bactericidal activity against Enterobacter aerogenes 17-1 assessed as reduction in bacterial growth; format: functional
[16] = test system: Acinetobacter baumannii; assay: Antibacterial activity against Carbapenem- resistant Acinetobacter baumannii 17-10 assessed as reduction in bacterial growth in the presence of Avibactam; format: functional
[17] = test system: Pseudomonas aeruginosa; assay: Bactericidal activity against Carbapenem- resistant Pseudomonas aeruginosa 17-8 assessed as reduction in bacterial growth; format: functional
[18] = test system: Pseudomonas aeruginosa; assay: Antibacterial activity against Carbapenem- resistant Pseudomonas aeruginosa 17-5 assessed as reduction in bacterial growth
[19] = test system: Escherichia coli; assay: Antibacterial activity against Escherichia coli ATCC 25922 assessed as reduction in bacterial growth in the presence of Avibactam; format: functional
[20] = test system: Klebsiella pneumoniae; assay: Bactericidal activity against Carbapenem- resistant Klebsiella pneumoniae KR 15-7 assessed as reduction in bacterial growth; format: functional
[21] = test system: Escherichia coli; assay: Antibacterial activity against Escherichia coli 15-5 overexpressing extended spectrum beta-lactamases assessed as reduction in bacterial growth; format: functional
[22] = test system: Klebsiella pneumoniae; assay: Antibacterial activity against Carbapenem- resistant Klebsiella pneumoniae KR 15-8 assessed as reduction in bacterial growth in the presence of Avibactam; format: functional
[23] = test system: Escherichia coli; assay: Antibacterial activity against Escherichia coli 15-3 overexpressing extended spectrum beta-lactamases assessed as reduction in bacterial growth; format: functional
[24] = test system: Escherichia coli; assay: Antibacterial activity against ESBLs positive Carbapenem-sensitive Escherichia coli 17-15 assessed as reduction in bacterial growth in the presence of Avibactam; format: functional
[25] = test system: Escherichia coli; assay: Bactericidal activity against ESBLs negative carbapenem-sensitive Escherichia coli 17-9 assessed as reduction in bacterial growth in the presence of avibactam; format: functional
[26] = test system: Escherichia coli; assay: Antibacterial activity against Escherichia coli 15-5 overexpressing extended spectrum beta-lactamases assessed as reduction in bacterial growth in the presence of Avibactam; format: functional
[27] = test system: Klebsiella pneumoniae; assay: Antibacterial activity against Multidrug resistant Klebsiella pneumoniae KR 15-2 assessed as reduction in bacterial growth in the presence of Avibactam; format: functional
[28] = test system: Acinetobacter baumannii; assay: Antibacterial activity against Carbapenem- resistant Acinetobacter baumannii 17-2 assessed as reduction in bacterial growth in the presence of Avibactam; format: functional
[29] = test system: Klebsiella pneumoniae; assay: Antibacterial activity against ESBLs positive Carbapenem-sensitive Klebsiella pneumoniae 17-8 assessed as reduction in bacterial growth in the presence of Avibactam; format: functional
[30] = test system: Escherichia coli; assay: Bactericidal activity against ESBLs negative Carbapenem--sensitive Escherichia coli 17-9 assessed as reduction in bacterial growth; format: functional
[31] = test system: Klebsiella aerogenes; assay: Bactericidal activity against Enterobacter aerogenes 17-4 assessed as reduction in bacterial growth in the presence of avibactam; format: functional
[32] = test system: Enterobacter cloacae; assay: Antibacterial activity against Enterobacter cloacae 17-2 assessed as reduction in bacterial growth in the presence of Avibactam; format: functional
[33] = test system: Pseudomonas aeruginosa; assay: Bactericidal activity against Carbapenem- resistant Pseudomonas aeruginosa 17-1 assessed as reduction in bacterial growth in the presence of avibactam; format: functional
[34] = test system: Escherichia coli; assay: Antibacterial activity against ESBLs positive Carbapenem- sensitive Escherichia coli 17-17 assessed as reduction in bacterial growth in the presence of Avibactam; format: functional
[35] = test system: Klebsiella pneumoniae; assay: Antibacterial activity against ESBLs negative Carbapenem-sensitive Klebsiella pneumoniae 17-20 assessed as reduction in bacterial growth in the presence of Avibactam; format: functional
[36] = test system: Acinetobacter baumannii; assay: Bactericidal activity against Carbapenem- resistant Acinetobacter baumannii 17-11 assessed as reduction in bacterial growth in the presence of avibactam; format: functional
[37] = test system: Escherichia coli; assay: Antibacterial activity against ESBLs negative Carbapenem-sensitive Escherichia coli 17-1 assessed as reduction in bacterial growth in the presence of Avibactam; format: functional
[38] = test system: Escherichia coli; assay: Bactericidal activity against ESBLs negative carbapenem-sensitive Escherichia coli 17-7 assessed as reduction in bacterial growth in the presence of avibactam; format: functional
[39] = test system: Klebsiella aerogenes; assay: Antibacterial activity against Enterobacter aerogenes 15-7 assessed as reduction in bacterial growth in the presence of Avibactam; format: functional
[40] = test system: Klebsiella pneumoniae; assay: Antibacterial activity against Carbapenem- resistant Klebsiella pneumoniae KR 15-4 assessed as reduction in bacterial growth in the presence of Avibactam; format: functional
[41] = test system: Escherichia coli; assay: Antibacterial activity against Escherichia coli ATCC 35218 assessed as reduction in bacterial growth; format: functional
[42] = test system: Acinetobacter baumannii; assay: Antibacterial activity against Carbapenem- resistant Acinetobacter baumannii 17-2 assessed as reduction in bacterial growth
[43] = test system: Escherichia coli; assay: Bactericidal activity against ESBLs positive Carbapenem-sensitive Escherichia coli 17-3 assessed as reduction in bacterial growth; format: functional
[44] = test system: Pseudomonas aeruginosa; assay: Bactericidal activity against carbapenem-sensitive Pseudomonas aeruginosa 17-29 assessed as reduction in bacterial growth; format: functional
[45] = test system: Klebsiella pneumoniae; assay: Antibacterial activity against Multidrug resistant Klebsiella pneumoniae KR 15-3 assessed as reduction in bacterial growth in the presence of Avibactam; format: functional
[46] = test system: Acinetobacter baumannii; assay: Antibacterial activity against Multidrug resistant Acinetobacter baumannii AR 15-2 assessed as reduction in bacterial growth; format: functional
[47] = test system: Acinetobacter baumannii; assay: Bactericidal activity against Carbapenem- resistant Acinetobacter baumannii 17-5 assessed as reduction in bacterial growth in the presence of avibactam; format: functional
[48] = test system: Pseudomonas aeruginosa; assay: Antibacterial activity against Carbapenem- sensitive Pseudomonas aeruginosa 17-30 assessed as reduction in bacterial growth; format: functional

**Q.** How did the MBC [1] turn out when `CC(C)(O/N=C(\C(=O)N[C@@H]1C(=O)N2C(C(=O)[O-])=C(C[n+]3ccccc3)CS[C@H]12)c1csc(N)n1)C(=O)O` [CEFTAZIDIME] was run?
**A.** > 2 µg/mL

**Q.** And the MIC [2]?
**A.** 8 µg/mL

**Q.** And the MIC [3]?
**A.** > 64 µg/mL

**Q.** And the MIC [4]?
**A.** 32 µg/mL (≈ 58.5 µM)

**Q.** What about the MIC [5] of the same compound?
**A.** 8 µg/mL

**Q.** What about the MIC [6] of the same compound?
**A.** 1 µg/mL

**Q.** And the MBC [7]?
**A.** 0.5 µg/mL

**Q.** What about the MBC [8] of the same compound?
**A.** 8 µg/mL

**Q.** And the MIC [9]?
**A.** > 64 µg/mL

**Q.** What about the MIC [10] of the same compound?
**A.** 16 µg/mL (≈ 29.3 µM)

**Q.** What about the MBC [11] of the same compound?
**A.** 0.25 µg/mL

**Q.** And the MBC [12]?
**A.** > 64 µg/mL

**Q.** And the MIC [13]?
**A.** 2 µg/mL

**Q.** And the MBC [14]?
**A.** 0.25 µg/mL

**Q.** What about the MBC [15] of the same compound?
**A.** 16 µg/mL (≈ 29.3 µM)

**Q.** And the MIC [16]?
**A.** 4 µg/mL

**Q.** And the MBC [17]?
**A.** 64 µg/mL (≈ 117 µM)

**Q.** What about the MIC [18] of the same compound?
**A.** 64 µg/mL (≈ 117 µM)

**Q.** And the MIC [19]?
**A.** 0.125 µg/mL

**Q.** And the MBC [20]?
**A.** > 64 µg/mL

**Q.** What about the MIC [21] of the same compound?
**A.** 32 µg/mL (≈ 58.5 µM)

**Q.** And the MIC [22]?
**A.** 4 µg/mL

**Q.** And the MIC [23]?
**A.** 8 µg/mL (≈ 14.6 µM)

**Q.** And the MIC [24]?
**A.** 0.5 µg/mL

**Q.** What about the MBC [25] of the same compound?
**A.** 0.25 µg/mL

**Q.** And the MIC [26]?
**A.** 1 µg/mL

**Q.** What about the MIC [27] of the same compound?
**A.** 2 µg/mL

**Q.** And the MIC [28]?
**A.** 8 µg/mL

**Q.** What about the MIC [29] of the same compound?
**A.** 2 µg/mL

**Q.** And the MBC [30]?
**A.** 4 µg/mL (≈ 7.32 µM)

**Q.** What about the MBC [31] of the same compound?
**A.** 0.5 µg/mL

**Q.** What about the MIC [32] of the same compound?
**A.** 1 µg/mL

**Q.** What about the MBC [33] of the same compound?
**A.** 16 µg/mL

**Q.** What about the MIC [34] of the same compound?
**A.** 0.5 µg/mL

**Q.** What about the MIC [35] of the same compound?
**A.** 0.125 µg/mL

**Q.** And the MBC [36]?
**A.** 32 µg/mL

**Q.** What about the MIC [37] of the same compound?
**A.** 0.5 µg/mL

**Q.** And the MBC [38]?
**A.** 0.125 µg/mL

**Q.** What about the MIC [39] of the same compound?
**A.** 1 µg/mL

**Q.** What about the MIC [40] of the same compound?
**A.** 2 µg/mL

**Q.** And the MIC [41]?
**A.** 0.06 µg/mL (≈ 0.11 µM)

**Q.** And the MIC [42]?
**A.** > 64 µg/mL

**Q.** What about the MBC [43] of the same compound?
**A.** 2 µg/mL (≈ 3.66 µM)

**Q.** What about the MBC [44] of the same compound?
**A.** 4 µg/mL (≈ 7.32 µM)

**Q.** What about the MIC [45] of the same compound?
**A.** 2 µg/mL

**Q.** What about the MIC [46] of the same compound?
**A.** > 64 µg/mL

**Q.** What about the MBC [47] of the same compound?
**A.** 16 µg/mL

**Q.** `C[C@@H](O)[C@H]1C(=O)N2C(C(=O)O)=C(S[C@@H]3CN[C@H](C(=O)N(C)C)C3)[C@H](C)[C@H]12` [MEROPENEM] was tested. Which MIC [48] did it give?
**A.** 2 µg/mL (≈ 5.22 µM)
